From patent US4757074A, “Piperazinyl benzyl acids having antihistamine activity” (Burroughs Wellcome Co., priority 1983, dated 1988)

molecular target: T1, longitudinal muscle from the intact ileum of guinea-pigs (response to histamine) (Cavia porcellus, UniProt P31389); assay: In vitro antihistaminic activity (inhibition of histamine concentration-response in isolated ileum longitudinal muscle); set-up: species or system guinea-pigs (Hartley, male); settings: negative log of the concentration which gives a significant antihistaminic effect; guinea-pig ileum longitudinal muscle; one hour incubation with test compound; Arunlakshana and Schild method; read-out: pA2 (converted)
T1 construct: The longitudinal muscle was isolated from the intact ileum of guinea-pigs; from tissue; host or cells: longitudinal muscle of guinea-pig ileum (Hartley, male)
T1 sequence (P31389 whole entry): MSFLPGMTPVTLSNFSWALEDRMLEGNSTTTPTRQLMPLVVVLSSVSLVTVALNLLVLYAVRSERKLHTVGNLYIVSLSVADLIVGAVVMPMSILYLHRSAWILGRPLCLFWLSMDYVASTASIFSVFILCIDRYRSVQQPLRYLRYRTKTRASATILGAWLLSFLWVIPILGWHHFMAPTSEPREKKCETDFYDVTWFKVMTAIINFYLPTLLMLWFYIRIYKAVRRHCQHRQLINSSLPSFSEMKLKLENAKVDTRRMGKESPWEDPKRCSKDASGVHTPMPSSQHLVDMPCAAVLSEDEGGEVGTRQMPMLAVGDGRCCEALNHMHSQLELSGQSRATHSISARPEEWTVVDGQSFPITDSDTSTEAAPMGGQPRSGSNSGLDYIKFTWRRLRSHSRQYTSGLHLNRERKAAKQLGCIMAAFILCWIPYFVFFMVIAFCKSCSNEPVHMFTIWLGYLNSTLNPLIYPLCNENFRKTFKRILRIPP
Procedure: In vitro antihistaminic activity: The longitudinal muscle was isolated from the intact ileum of guinea-pigs (Hartley, male, 250-400 g) and placed in an organ bath under 300 mg tension. After one hour of equilibration, cumulative concentration-response curves (Van Rossum, J. M., Arch. Int. Pharmacodyn. Ther. 143, 299-330, 1963) to histamine were obtained. Following washing, the tissues were incubated for one hour with the test compound and then a second histamine concentration-response curve was run. Antihistaminic activity was determined as pA2 values by the method of Arunlakshana, O. and Schild, H. O. (Br. J. Pharmacol: 14, 48-58, 1959).

Kb [nM]	SMILES
501	CN1CCN(C(c2ccc(Cl)cc2)c2cccc(/C=C/C(=O)O)c2)CC1 (stereo not drawn) [A, (E)-3-(4-Chloro-α-(4-methyl-1-piperazinyl)-benzyl)cinnamic acid]
398	CN1CCN(C(c2ccc(Cl)cc2)c2cccc(C(=O)O)c2)CC1 (stereo not drawn) [B, 3-(4-Chloro-α-(4-methyl-1-piperazinyl)benzyl)benzoic acid]
2510	CN1CCN(C(c2ccc(Cl)cc2)c2ccc(C(=O)O)cc2)CC1 (stereo not drawn) [D, 4-(4-Chloro-α-(4-methyl-1-piperazinyl)benzyl)benzoic acid]
316	COc1ccc(C(c2cccc(C(=O)O)c2)N2CCN(C)CC2)cc1 (stereo not drawn) [E, 3-(4-Methoxy-α-(4-methyl-1-piperazinyl)benzyl)benzoic acid]
158	CN1CCN(C(c2ccc(Cl)cc2)c2cccc(OCC(=O)O)c2)CC1 (stereo not drawn) [F, 3-(4-Chloro-α-(4-methyl-1-piperazinyl)benzyl)phenoxyacetic acid]

The remaining lines, values behind:

SMILES	Kb [nM]
CN1CCN(C(c2ccc(Cl)cc2)c2ccccc2C(=O)O)CC1 (stereo not drawn) [C, 2-(4-Chloro-α-(4-methyl-1-piperazinyl)benzyl)benzoic acid]	2510
Cc1cccc(CN2CCN(C(c3ccc(Cl)cc3)c3cccc(OCC(=O)O)c3)CC2)c1 (stereo not drawn) [G, 3-(4-Chloro-α-(4-(3-methylbenzyl)-1-piperazinyl)benzyl)phenoxyacetic acid]	1.58
CC(C)(C)c1ccc(CN2CCN(C(c3ccc(Cl)cc3)c3cccc(OCC(=O)O)c3)CC2)cc1 (stereo not drawn) [H, 3-(4-Chloro-α-(4-(4-tert-butylbenzyl)-1-piperazinyl)benzyl)phenoxyacetic acid]	6.31

molecular target: T1, longitudinal muscle from the intact ileum of guinea-pigs (response to histamine); assay: not given; settings: literature value, R. B. Barlow, Introduction to Chemical Pharmacology, 2nd ed., p. 357, 1964; cited from earlier work

SMILES	pA2
CN1CCN(C(c2ccccc2)c2ccc(Cl)cc2)CC1 (stereo not shown) [Chlorcyclizine, 1-(4-Chlorobenzhydryl)-4-methylpiperazine]	8.6

tested on: not given; assay: not given; settings: clinical use, most patients; Goodman and Gilman, 4th ed., p. 640, 1970; cited from earlier work

SMILES	sedation and drowsiness
CN1CCN(C(c2ccccc2)c2ccc(Cl)cc2)CC1 (stereo not shown) [Chlorcyclizine, 1-(4-Chlorobenzhydryl)-4-methylpiperazine]	produces sedation and drowsiness in varying degrees in most patients
